Measured values as given in US20100234435A1, “CYCLOALKYLAMINO ACID DERIVATIVES” (priority 2007, published 2010).
pIC50, pKi: −log10 of the molar value. Counter-ions that a name gives are not always drawn.

Assays:
S1P1 = target: T1, S1P1 (Homo sapiens, UniProt P21453); assay: Radioligand binding assay, 33P-S1P labelled S1P1 receptor; conditions: 33P-S1P labelled receptors
T1 construct: expressed in transfected cells; membranes
Protocol: (§1) HEK293 or CHO cells expressing S1P1-5, are prepared in ˜0.5×10^5 cells/well. Cells are plated into each well of a 6-well plate in 2 ml of growth media (OptiMEM, Invitrogen). Two micrograms receptor plasmid DNA is mixed in 200 ul OptiMEM, and combined with 6 ul Lipofectamine (2000-9, Invitrogen). The mixture is added drop wise to 2 ml of growth media covering the cells in each well. The cells are allowed to transfect for 8-18 hours at room temperature. The OptiMEM transfection medium is replaced with 2 ml fresh serum-containing medium an incubated for 48 hours. The cells are diluted 1:10 in selection media (OptiMEM. Invitrogen) containing 0.8 mg/ml G418 in 10 cm dishes. Colonies are allowed to form (˜1-2 weeks), and 12 colonies from each dish are independently harvested with cloning disks and placed into 24-well plates.
(§2) Cell membranes from CHO-S1P1-5 or HEK-S1P1-5 transfected cells are prepared by homogenizing the cells in an ice cold solution containing 25 mM Tris, 5 mM EDTA, 5 mM EGTA, and Complete Protease Inhibitor Cocktail, EDTA-Free (Roche #1 873 580). Cells are lysed by dounce homogenization and centrifugation at 20,000×g for 20 minutes at 4° C. Membrane pellets are resuspended in the same buffer and centrifuged again at 20,000×g for 20 minutes at 4° C. Final membrane pellet is resuspended in 20 mM HEPES, pH 7.5, 5 mM MgCl2, 1 mM CaCl2. Protein concentration is determined using the Micro BCA protein assay (Pierce #23235).
(§3) Serial dilutions of test compounds in DMSO are prepared in 96 well polypropylene plates. Using the FX robot 1:50 intermediate dilutions are made to assay buffer (20 mM HEPES, pH 7.5, 5 mM MgCl2, 1 mM CaCl2, 4 mg/ml fatty-acid free BSA). This intermediate is further diluted 1:10 to the final assay reaction. Final DMSO concentration in the reaction is 0.2%. Final reaction contains 50 pM ^33P-S1P (Perkin Elmer; Special Order), and 2.5 μg of cell membranes. The reaction is incubated at room temperature for 30 minutes and stopped by filtration through GF/B UniFilter Plates (Perkin Elmer #6005177) and washed four times with wash buffer containing 50 mM Tris pH 7.4, 0.025% Tween-20. The filter plates are dried for approximately 20 minutes in an oven at 50° C. Back seals are adhered to the filter plates and 40 μl of Microscint-20 scintillation fluid is added (Perkin Elmer #6013621). The filter plates are sealed, shaken for 30 minutes at room temperature, and counted on a Top Count (PerkinElmer).

S1P3 = target: T2, S1P3 (Homo sapiens, UniProt Q99500); assay: Radioligand binding assay, 33P-S1P labelled S1P3 receptor; conditions: 33P-S1P labelled receptors
T2 construct: expressed in transfected cells; membranes
T2 sequence (Q99500 whole entry): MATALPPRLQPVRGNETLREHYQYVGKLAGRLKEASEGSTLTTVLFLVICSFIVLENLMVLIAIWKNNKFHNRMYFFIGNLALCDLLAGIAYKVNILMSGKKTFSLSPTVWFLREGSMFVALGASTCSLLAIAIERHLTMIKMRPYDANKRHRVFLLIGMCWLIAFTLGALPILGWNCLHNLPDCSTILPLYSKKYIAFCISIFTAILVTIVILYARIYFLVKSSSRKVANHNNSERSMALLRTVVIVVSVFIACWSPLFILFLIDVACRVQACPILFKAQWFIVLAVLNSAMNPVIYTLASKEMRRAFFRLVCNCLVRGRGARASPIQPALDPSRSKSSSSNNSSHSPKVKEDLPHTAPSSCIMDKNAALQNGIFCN
Protocol: as §1, §2, §3

S1P4 = target: T3, S1P4 (Homo sapiens, UniProt O95977); assay: Radioligand binding assay, 33P-S1P labelled S1P4 receptor; conditions: 33P-S1P labelled receptors
T3 construct: expressed in transfected cells; membranes
T3 sequence (O95977 1-384): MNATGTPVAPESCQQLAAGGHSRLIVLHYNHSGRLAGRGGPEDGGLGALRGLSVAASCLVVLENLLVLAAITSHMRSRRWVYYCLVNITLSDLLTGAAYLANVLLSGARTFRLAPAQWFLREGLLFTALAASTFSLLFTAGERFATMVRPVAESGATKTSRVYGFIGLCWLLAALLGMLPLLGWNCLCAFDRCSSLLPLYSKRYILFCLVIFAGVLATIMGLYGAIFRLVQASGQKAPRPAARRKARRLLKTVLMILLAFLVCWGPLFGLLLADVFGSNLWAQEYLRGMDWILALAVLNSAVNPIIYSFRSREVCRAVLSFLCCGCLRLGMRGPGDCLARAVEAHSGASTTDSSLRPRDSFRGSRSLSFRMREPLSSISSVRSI
Protocol: as §1, §2, §3

S1P2 = target: T4, S1P2 (Homo sapiens, UniProt O95136); assay: Radioligand binding assay, 33P-S1P labelled S1P2 receptor; conditions: 33P-S1P labelled receptors
T4 construct: expressed in transfected cells; membranes
T4 sequence (O95136 whole entry): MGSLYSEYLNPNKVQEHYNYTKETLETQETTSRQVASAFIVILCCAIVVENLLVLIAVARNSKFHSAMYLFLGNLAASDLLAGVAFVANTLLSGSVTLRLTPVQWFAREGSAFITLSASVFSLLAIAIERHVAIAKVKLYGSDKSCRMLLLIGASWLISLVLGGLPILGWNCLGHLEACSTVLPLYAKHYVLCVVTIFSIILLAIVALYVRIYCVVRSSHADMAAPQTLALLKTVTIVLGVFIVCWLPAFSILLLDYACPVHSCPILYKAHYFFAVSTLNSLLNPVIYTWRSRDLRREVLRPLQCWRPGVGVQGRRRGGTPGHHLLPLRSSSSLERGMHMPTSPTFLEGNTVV
Protocol: as §1, §2
(§4) Serial dilutions of test compounds in DMSO are prepared in 96 well polypropylene plates. Using the FX robot 1:50 intermediate dilutions are made to assay buffer (20 mM HEPES, pH 7.5, 5 mM MgCl2, 1 mM CaCl2, 4 mg/ml fatty-acid free BSA). This intermediate is further diluted 1:10 to the final assay reaction. Final DMSO concentration in the reaction is 0.2%. […] The filter plates are sealed, shaken for 30 minutes at room temperature, and counted on a Top Count (PerkinElmer).

S1P5 = target: T5, S1P5 (Homo sapiens, UniProt Q9H228); assay: Radioligand binding assay, 33P-S1P labelled S1P5 receptor; conditions: 33P-S1P labelled receptors
T5 construct: expressed in transfected cells; membranes
T5 sequence (Q9H228 whole entry): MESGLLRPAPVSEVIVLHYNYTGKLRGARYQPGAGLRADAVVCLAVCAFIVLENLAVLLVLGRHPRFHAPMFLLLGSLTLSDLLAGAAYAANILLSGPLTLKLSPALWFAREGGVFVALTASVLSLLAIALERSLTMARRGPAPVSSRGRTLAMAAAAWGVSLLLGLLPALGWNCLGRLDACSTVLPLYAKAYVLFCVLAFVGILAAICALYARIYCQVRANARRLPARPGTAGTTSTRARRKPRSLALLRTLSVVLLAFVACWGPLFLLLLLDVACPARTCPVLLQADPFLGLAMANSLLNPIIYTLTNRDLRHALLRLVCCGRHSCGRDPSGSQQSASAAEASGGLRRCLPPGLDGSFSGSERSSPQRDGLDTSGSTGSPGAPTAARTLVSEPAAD
Protocol: as §1, §2, §4

[1] = Terminal half life and clearance from blood samples; type: in vivo, CD1 mice; conditions: CD1, mouse, oral; for clearance: read-out: Cl (ml/min/kg) (clearance)
Text: Agonium of S1P1 results in S1P1 internalization, inhibiting lymphocyte egress into circulation, and is clinically presented as lymphopenia (Chiba, Pharmacology & Therapeutics 2005; 108,308-319, 2005). The following protocol may be used to assess the potential induction of lymphopenia for the test compounds when administered as a single oral dose to CD1 mice.
A suspension of 5% Gelucire may be used as the vehicle to prepare dosing formulations and to dose vehicle control animals. Test compound is weighed and transferred to a 15 mL Falcon tube or equivalent to make stock formulations. The appropriate amount of 5% Gelucire vehicle is then added to the tube. The resulting formulation is sonicated with a probe sonicator until no obvious particulate matter is apparent. About 500 mL Gelucire (Gattefosse, St-Priest, Cedex, France) is melted in a 1000 W microwave oven set for 3 minutes on high power. The appropriate amount of Gelucire is added to deionized water to form 5% (vol/vol) aqueous Gelucire.
Blood samples (˜0.6-0.8 mL) may be collected via intracardiac puncture at appropriate time points. The mice are anesthetized by carbon dioxide and euthanized via exanguination by intracardiac puncture. Blood samples are obtained and placed in tubes containing EDTA. Lymphocytes (L, %) count is measured with Abbott Cell-Dyn 3700 automated analyzer.
Samples of blood were taken to determine terminal half life (T½) and clearance of the compounds, using well accepted methods for such assays.

T1 sequence (P21453 whole entry): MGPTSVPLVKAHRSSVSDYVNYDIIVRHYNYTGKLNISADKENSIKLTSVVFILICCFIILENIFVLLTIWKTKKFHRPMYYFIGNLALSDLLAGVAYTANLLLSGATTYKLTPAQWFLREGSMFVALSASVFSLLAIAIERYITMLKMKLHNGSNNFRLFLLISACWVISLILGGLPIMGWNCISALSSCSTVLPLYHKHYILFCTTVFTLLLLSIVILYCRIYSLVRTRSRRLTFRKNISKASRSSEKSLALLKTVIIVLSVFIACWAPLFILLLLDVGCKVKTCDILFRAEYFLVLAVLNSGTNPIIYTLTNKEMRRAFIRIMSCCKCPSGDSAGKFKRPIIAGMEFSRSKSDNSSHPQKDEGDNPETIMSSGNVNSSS

Row | pKi (S1P1) | pIC50 (S1P3) | pIC50 (S1P4) | pIC50 (S1P2) | pIC50 (S1P5) | half-life [1] [h] | clearance [1] [mL/min/kg] | Structure (SMILES)
1 | 9.80 | 8.15 | 7.82 | – | – | – | – | CCCCCCCCCCCCC/C=C/[C@@H](O)[C@@H](N)COP(=O)(O)O [Example S1P, sphingosine-1-phosphate, reference compound]
2 | 9.54 | < 6.00 | 7.46 | < 6.00 | 8.54 | 5.2 | 6 | CC(C)Cc1ccc(-c2nc(-c3ccc([C@@H](C)N[C@H]4C[C@@H](C(=O)O)C4)cc3)no2)cc1 [cis-3-{[(1R)-1-{4-[5-(4-Isobutylphenyl)-1,2,4-oxadiazol-3-yl]phenyl}ethyl]amino}cyclobutanecarboxylic acid]
3 | 8.57 | < 6.00 | 6.48 | < 6.00 | 7.96 | 6.7 | 5.11 | CC(C)Cc1ccc(-c2nc(-c3ccc([C@H](C)N[C@H]4C[C@@H](C(=O)O)C4)cc3)no2)cc1 [cis-3-{[(1S)-1-{4-[5-(4-isobutylphenyl)-1,2,4-oxadiazol-3-yl]phenyl}ethyl]amino}cyclobutanecarboxylic acid, hydrochloride salt]
4 | 8.34 | < 6.00 | 6.36 | < 6.00 | 7.82 | – | – | CC(C)Cc1ccc(-c2nc(-c3ccc([C@@H](C)N[C@H]4C[C@H](C(=O)O)C4)cc3)no2)cc1 [trans-3-{[(1R)-1-{-4-[5-(4-Isobutylphenyl)-1-1,2,4-oxadiazol-3-yl]phenyl}ethyl]amino}cyclobutanecarboxylic acid]
